Results as given in PubChem BioAssay (NCI).
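Dose response: 5 concentrations. Exposure: 48 h. Format: 96-well plates. Endpoint: linear interpolation; highest concentration if not reached. Here, GI50 denotes the concentration required for 50% inhibition of growth. TGI marks complete inhibition of growth.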

Experiments:
Experiment in all cases: DTP human tumour cell line panel, 48 h
[1] = system: SR leukemia
[2] = system: HOP-92 NSCLC
[3] = system: HCT-116 colon
[4] = system: A498 renal
[5] = system: NCI-H226 lung
[6] = system: EKVX NSCLC
[7] = system: IGROV1 ovarian
[8] = system: M14 melanoma
[9] = system: HOP-62 NSCLC
[10] = system: KM12 colon
[11] = system: SW-620 colon
[12] = system: NCI-H460 lung
[13] = system: ACHN renal
[14] = system: SK-MEL-5 melanoma
[15] = system: PC-3 prostate
[16] = system: U251 CNS
[17] = system: OVCAR-4 ovarian
[18] = system: COLO 205 colon
[19] = system: SK-OV-3 ovarian
[20] = system: UACC-257 melanoma
[21] = system: A549 NSCLC
[22] = system: SF-268 CNS
[23] = system: BT-549 breast
[24] = system: SF-539 CNS
[25] = system: SNB-75 CNS
[26] = system: NCI/ADR-RES ovarian
[27] = system: DU-145 prostate
[28] = system: HL-60(TB) leukemia
[29] = system: CCRF-CEM leukemia
[30] = system: SF-295 CNS
[31] = system: SN12C renal
[32] = system: HT29 colon
[33] = system: T-47D breast
[34] = system: SK-MEL-28 melanoma
[35] = system: SK-MEL-2 melanoma
[36] = system: MCF7 breast
[37] = system: NCI-H23 lung
[38] = system: OVCAR-5 ovarian
[39] = system: NCI-H522 lung
[40] = system: OVCAR-8 ovarian
[41] = system: MOLT-4 leukemia
[42] = system: MDA-MB-435
[43] = system: OVCAR-3 ovarian
[44] = system: 786-0 renal
[45] = system: HCT-15 colon
[46] = system: CAKI-1 renal
[47] = system: MDA-MB-231 breast
[48] = system: RPMI-8226 leukemia
[49] = system: HCC-2998 colon
[50] = system: TK-10 renal
[51] = system: HS 578T breast
[52] = system: MALME-3M melanoma
[53] = system: K-562 leukemia
[54] = system: UO-31 renal
[55] = system: LOX IMVI melanoma
[56] = system: RXF 393 renal
[57] = system: SNB-19 CNS
[58] = system: UACC-62 melanoma

Work on `CC1(C)CN(c2cc(C(F)(F)F)cc3cncn23)CCC12NC(=O)NC2=O` (configuration not stated) yielded a GI50 [1] of 48.5 µM, a TGI [1] of over 100 µM and a GI50 [2] of 20.1 µM. For the same compound, the TGI [2] was 86.5 µM, the GI50 [3] was 26.3 µM and the TGI [3] was over 100 µM. For the same compound, the GI50 [4] was 16.8 µM, the TGI [4] was 55.3 µM and the GI50 [5] was 33.5 µM. For the same compound, the TGI [5] was over 100 µM, the GI50 [6] was 4.33 µM and the TGI [6] was 40.6 µM. It also gave a GI50 [7] of 30.5 µM, a TGI [7] of over 100 µM and a GI50 [8] of 33.4 µM. It also gave a TGI [8] of over 100 µM, a GI50 [9] of 40.3 µM and a TGI [9] of over 100 µM. For the same compound, the GI50 [10] was 45.1 µM, the TGI [10] was over 100 µM and the GI50 [11] was 52.6 µM. For the same compound, the TGI [11] was over 100 µM, the GI50 [12] was 40.5 µM and the TGI [12] was over 100 µM. It also gave a GI50 [13] of 33.7 µM, a TGI [13] of over 100 µM and a GI50 [14] of 18.1 µM. For the same compound, the TGI [14] was 35.4 µM, the GI50 [15] was 24.4 µM and the TGI [15] was over 100 µM. For the same compound, the GI50 [16] was 37.5 µM, the TGI [16] was over 100 µM and the GI50 [17] was 31.6 µM. It also gave a TGI [17] of over 100 µM, a GI50 [18] of 41.9 µM and a TGI [18] of over 100 µM. It also gave a GI50 [19] of 36.9 µM, a TGI [19] of over 100 µM and a GI50 [20] of 52.7 µM. It also gave a TGI [20] of over 100 µM, a GI50 [21] of 38 µM and a TGI [21] of over 100 µM. For the same compound, the GI50 [22] was 38.7 µM, the TGI [22] was over 100 µM and the GI50 [23] was 23.2 µM. The TGI [23] was over 100 µM, the GI50 [24] was 42.5 µM and the TGI [24] was over 100 µM. It also gave a GI50 [25] of 16.3 µM, a TGI [25] of 68.5 µM and a GI50 [26] of 67.5 µM. The TGI [26] was over 100 µM, the GI50 [27] was 56.2 µM and the TGI [27] was over 100 µM. It also gave a GI50 [28] of 22 µM, a TGI [28] of 48.9 µM and a GI50 [29] of 35.6 µM. The TGI [29] was over 100 µM, the GI50 [30] was 30.3 µM and the TGI [30] was over 100 µM. It also gave a GI50 [31] of 36.2 µM, a TGI [31] of over 100 µM and a GI50 [32] of 50.9 µM. For the same compound, the TGI [32] was over 100 µM, the GI50 [33] was 21.4 µM and the TGI [33] was over 100 µM. For the same compound, the GI50 [34] was 49.9 µM, the TGI [34] was over 100 µM and the GI50 [35] was 32.4 µM. It also gave a TGI [35] of over 100 µM, a GI50 [36] of 24.2 µM and a TGI [36] of over 100 µM. For the same compound, the GI50 [37] was 35.5 µM, the TGI [37] was over 100 µM and the GI50 [38] was 66.1 µM. For the same compound, the TGI [38] was over 100 µM, the GI50 [39] was 28.9 µM and the TGI [39] was over 100 µM. It also gave a GI50 [40] of 36 µM, a TGI [40] of over 100 µM and a GI50 [41] of 24.3 µM. For the same compound, the TGI [41] was over 100 µM, the GI50 [42] was 42.2 µM and the TGI [42] was over 100 µM. For the same compound, the GI50 [43] was 38.5 µM, the TGI [43] was over 100 µM and the GI50 [44] was 32.8 µM. The TGI [44] was over 100 µM, the GI50 [45] was 32.4 µM and the TGI [45] was over 100 µM. It also gave a GI50 [46] of 19.2 µM, a TGI [46] of 92 µM and a GI50 [47] of 29.2 µM. It also gave a TGI [47] of over 100 µM, a GI50 [48] of 30.5 µM and a TGI [48] of over 100 µM. It also gave a GI50 [49] of 72.5 µM, a TGI [49] of over 100 µM and a GI50 [50] of 37.8 µM. It also gave a TGI [50] of over 100 µM, a GI50 [51] of 21.1 µM and a TGI [51] of 90.1 µM. It also gave a GI50 [52] of 42.3 µM, a TGI [52] of over 100 µM and a GI50 [53] of 40.9 µM. It also gave a TGI [53] of over 100 µM, a GI50 [54] of 21.1 µM and a TGI [54] of 83.7 µM. It also gave a GI50 [55] of 30.1 µM, a TGI [55] of over 100 µM and a GI50 [56] of 17.5 µM. It also gave a TGI [56] of 61.1 µM, a GI50 [57] of 46.8 µM and a TGI [57] of over 100 µM. The GI50 [58] was 27.7 µM and the TGI [58] was over 100 µM.
`CNC(=O)NCC1OC(n2cnc3c(NC(=O)Nc4ccccc4)ncnc32)C(O[Si](C)(C)C(C)(C)C)C1CC(=O)N(C)OC` (configuration not stated) showed a GI50 [1] of 1.63 µM, a TGI [1] of 4.06 µM and a GI50 [2] of 4.33 µM. It also gave a TGI [2] of over 49.3 µM, a GI50 [3] of 3.95 µM and a TGI [3] of over 100 µM. It also gave a GI50 [4] of 6.06 µM, a TGI [4] of over 63.5 µM and a GI50 [5] of 15.8 µM. For the same compound, the TGI [5] was over 100 µM, the GI50 [6] was 12.3 µM and the TGI [6] was over 100 µM. For the same compound, the GI50 [7] was 4 µM, the TGI [7] was over 81.1 µM and the GI50 [8] was 8.36 µM. The TGI [8] was over 100 µM, the GI50 [9] was 22 µM and the TGI [9] was over 100 µM. It also gave a GI50 [10] of 10.6 µM, a TGI [10] of over 100 µM and a GI50 [11] of over 100 µM. The TGI [11] was over 100 µM, the GI50 [12] was 5.32 µM and the TGI [12] was over 100 µM. For the same compound, the GI50 [13] was 7.87 µM, the TGI [13] was over 100 µM and the GI50 [14] was 4.92 µM. It also gave a TGI [14] of over 100 µM, a GI50 [15] of 4.95 µM and a TGI [15] of over 100 µM. For the same compound, the GI50 [16] was 4.85 µM, the TGI [16] was over 100 µM and the GI50 [17] was 16.6 µM. It also gave a TGI [17] of over 100 µM, a GI50 [18] of 12.3 µM and a TGI [18] of over 100 µM. The GI50 [19] was over 72.6 µM, the TGI [19] was over 100 µM and the GI50 [20] was 8.25 µM. For the same compound, the TGI [20] was over 100 µM, the GI50 [21] was 5.88 µM and the TGI [21] was over 100 µM. It also gave a GI50 [22] of 8.29 µM, a TGI [22] of over 100 µM and a GI50 [23] of 9.58 µM. It also gave a TGI [23] of over 100 µM, a GI50 [24] of 8.21 µM and a TGI [24] of over 100 µM. It also gave a GI50 [25] of 6.32 µM, a TGI [25] of over 100 µM and a GI50 [26] of over 100 µM. It also gave a TGI [26] of over 100 µM, a GI50 [27] of 14.7 µM and a TGI [27] of over 100 µM. It also gave a GI50 [28] of 1.69 µM, a TGI [28] of 4.23 µM and a GI50 [29] of 6.37 µM. For the same compound, the TGI [29] was over 100 µM, the GI50 [30] was 9.09 µM and the TGI [30] was over 100 µM. The GI50 [31] was 17.1 µM, the TGI [31] was over 100 µM and the GI50 [32] was 4.12 µM. It also gave a TGI [32] of over 100 µM, a GI50 [33] of 7.41 µM and a TGI [33] of over 100 µM. It also gave a GI50 [34] of 5.21 µM, a TGI [34] of over 100 µM and a GI50 [35] of 8.08 µM. The TGI [35] was over 91.2 µM, the GI50 [36] was 4.11 µM and the TGI [36] was over 100 µM. For the same compound, the GI50 [37] was 23.6 µM, the TGI [37] was over 100 µM and the GI50 [38] was 16.8 µM. For the same compound, the TGI [38] was over 100 µM, the GI50 [39] was 7.76 µM and the TGI [39] was over 100 µM. The GI50 [40] was 6.52 µM, the TGI [40] was over 100 µM and the GI50 [41] was 2.23 µM. It also gave a TGI [41] of 9.36 µM, a GI50 [42] of 5.66 µM and a TGI [42] of over 100 µM. The GI50 [43] was 5.84 µM, the TGI [43] was over 100 µM and the GI50 [44] was 7.06 µM. The TGI [44] was over 100 µM, the GI50 [45] was 4.8 µM and the TGI [45] was over 100 µM. It also gave a GI50 [46] of 53.8 µM, a TGI [46] of over 100 µM and a GI50 [47] of 8.47 µM. For the same compound, the TGI [47] was over 100 µM, the GI50 [48] was 1.58 µM and the TGI [48] was 5.4 µM. It also gave a GI50 [49] of 30.6 µM, a TGI [49] of over 100 µM and a GI50 [50] of 9.17 µM. It also gave a TGI [50] of over 100 µM, a GI50 [51] of 7.39 µM and a TGI [51] of over 100 µM. It also gave a GI50 [52] of 7.51 µM, a TGI [52] of over 100 µM and a GI50 [53] of 3.12 µM. The TGI [53] was over 100 µM, the GI50 [54] was 5.7 µM and the TGI [54] was over 100 µM. It also gave a GI50 [55] of 5.12 µM, a TGI [55] of over 100 µM and a GI50 [56] of 4.02 µM. It also gave a TGI [56] of 12.7 µM, a GI50 [57] of over 23 µM and a TGI [57] of over 100 µM. It also gave a GI50 [58] of 41.9 µM and a TGI [58] of over 100 µM.
